Assay [1] relates to DLD-1 BRCA2(−/−) cells. The experiment in a line: Cell growth inhibition assay (CellTiter-Glo cell viability, 7 days). Type of assay: cell-based. The following applies: Homo sapiens, 168 h. The method, boiled down:
(§1)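 Cells were seeded at 50 (DLD-1 parental), 200 (DLD-1 BRCA2−/−) or 500 (MDA-MB-436) cells/well onto 1:3 compound dilutions, top final 10 or 30 μM. Culture ran 7 days at 37 °C, 5% CO2. ATP was read by CellTiter-Glo 2.0, and IC50 was fitted from growth inhibition.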

The subject of assay [2] is MDA-MB-436 (mutated BRCA1) cells. The assay is described as above. It counts as cell-based. The following applies: Homo sapiens, 168 h, MDA-MB-436, 7 days. The essentials: as §1
Assay [3] deals with PARP1 (Homo sapiens (Human), UniProt P09874). The experiment in a line: Biochemical fluorescent polarization (FP) assay, displacement of PARPi-FL. The following applies: 20 nM protein, 3 nM PARPi-FL, 4 h at room temperature. It counts as binding. How it is done: (§2) The assay was performed utilizing the following method:
(§3) 100% DMSO was used for the high (with protein) and low (without protein) control samples. 20 nL of compound or DMSO alone was added to individual assay plate wells.
(§4) PARP1 and PARP2 protein were expressed, purified, and diluted in assay buffer containing 50 mM Tris pH 8.0, 0.001% Triton X-100, 10 mM MgCl2, 150 mM NaCl to a final concentration of 20 nM. The PARPi-FL was then added at a final concentration of 3 nM.
(§5) The assay plate is centrifuged at 1000 rpm for 1 min and incubated for 4 h at room temperature.
(§6) The fluorescent polarization is read using an Envision plate reader using the following settings: […]

The target of assay [4] is PARP2 (Homo sapiens (Human), UniProt Q9UGN5). The description is as above. Type of assay: binding. Here is the method: as §2, §3, §4, §5, §6
Setting [5] is: 20 nM protein, 3 nM PARPi-FL, 4 h at room temperature, read-out: IC50 FP PARP2.

Like-named read-outs stand apart in the source and are kept apart here. Where only a bound is given, the exact number is not on record here.

Sequence of PARP2 (Q9UGN5 whole entry): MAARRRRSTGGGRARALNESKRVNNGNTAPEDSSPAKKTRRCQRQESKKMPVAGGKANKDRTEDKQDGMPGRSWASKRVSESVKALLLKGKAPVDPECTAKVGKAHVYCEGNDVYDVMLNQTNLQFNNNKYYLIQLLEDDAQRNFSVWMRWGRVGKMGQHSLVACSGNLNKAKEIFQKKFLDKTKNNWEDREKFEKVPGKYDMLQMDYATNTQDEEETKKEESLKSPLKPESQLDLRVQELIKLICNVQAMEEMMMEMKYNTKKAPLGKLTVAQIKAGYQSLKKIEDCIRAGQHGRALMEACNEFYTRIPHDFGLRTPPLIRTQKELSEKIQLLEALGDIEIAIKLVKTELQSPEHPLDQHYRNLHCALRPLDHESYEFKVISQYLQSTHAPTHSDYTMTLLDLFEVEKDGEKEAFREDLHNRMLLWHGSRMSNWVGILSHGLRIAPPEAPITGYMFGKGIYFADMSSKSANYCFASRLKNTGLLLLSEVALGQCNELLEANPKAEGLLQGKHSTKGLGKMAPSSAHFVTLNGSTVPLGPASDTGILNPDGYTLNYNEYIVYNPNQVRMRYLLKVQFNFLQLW
Sequence of PARP1 (P09874 whole entry): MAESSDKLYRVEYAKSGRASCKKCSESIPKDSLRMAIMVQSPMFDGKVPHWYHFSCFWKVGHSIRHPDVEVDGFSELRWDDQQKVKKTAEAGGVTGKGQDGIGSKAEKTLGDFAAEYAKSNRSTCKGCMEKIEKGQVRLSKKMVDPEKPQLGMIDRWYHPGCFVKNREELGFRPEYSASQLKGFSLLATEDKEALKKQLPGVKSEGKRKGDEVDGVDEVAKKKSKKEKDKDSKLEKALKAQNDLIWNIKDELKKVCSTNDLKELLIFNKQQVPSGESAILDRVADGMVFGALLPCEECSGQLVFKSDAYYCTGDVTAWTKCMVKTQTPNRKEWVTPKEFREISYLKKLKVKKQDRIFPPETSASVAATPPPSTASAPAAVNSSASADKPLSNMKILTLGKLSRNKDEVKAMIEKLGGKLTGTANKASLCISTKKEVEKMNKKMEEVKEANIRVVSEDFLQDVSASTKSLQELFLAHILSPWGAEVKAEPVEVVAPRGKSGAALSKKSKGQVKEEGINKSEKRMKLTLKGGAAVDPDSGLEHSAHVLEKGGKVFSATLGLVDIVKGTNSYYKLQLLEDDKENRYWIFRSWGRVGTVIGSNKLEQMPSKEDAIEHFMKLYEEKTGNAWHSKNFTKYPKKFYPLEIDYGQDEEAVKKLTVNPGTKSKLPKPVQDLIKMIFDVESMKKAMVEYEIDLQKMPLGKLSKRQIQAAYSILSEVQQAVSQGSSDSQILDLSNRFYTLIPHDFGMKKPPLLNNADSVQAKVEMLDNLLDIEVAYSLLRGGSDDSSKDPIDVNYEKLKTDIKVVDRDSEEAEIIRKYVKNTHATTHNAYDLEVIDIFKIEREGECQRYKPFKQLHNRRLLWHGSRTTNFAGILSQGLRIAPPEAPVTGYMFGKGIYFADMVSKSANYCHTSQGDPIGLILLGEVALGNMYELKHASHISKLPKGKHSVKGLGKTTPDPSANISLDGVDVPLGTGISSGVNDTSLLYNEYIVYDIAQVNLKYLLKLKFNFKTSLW

Usually EC50 stands for the concentration giving half of the maximal effect. Low values mean a more potent agent, high ones a less potent agent. The IC50 is the midpoint of a concentration-inhibition curve. With `CCc1cc2ncc(CN3C[C@H](Oc4ccc(C(=O)NC5CC5)nc4)[C@H]3C)cc2[nH]c1=O` [Example 43, N-cyclopropyl-5-{[(2R,3S)-1-[(7-ethyl-6-oxo-5H-1,5-naphthyridin-3-yl)methyl]-2-methylazetidin-3-yl]oxy}pyridine-2-carboxamide], the EC50 came to 1.1 nM in assay [1] and 0.46 nM in assay [2]. The IC50 in assay [3] was 6.6 nM; in assay [4] (setting [5]), 2900 nM.

As to `CCc1cc2ncc(CN3C[C@H](Oc4ccc(C(=O)NC5COC5)nc4)[C@H]3C)cc2[nH]c1=O` [Example 44, 5-(((2R,3S)-1-((7-ethyl-6-oxo-5,6-dihydro-1,5-naphthyridin-3-yl)methyl)-2-methylazetidin-3-yl)oxy)-N-(oxetan-3-yl)picolinamide], the EC50 in assay [1] came to 3.5 nM; in assay [2], 1.3 nM. Moreover, the figures for the concentration for half-maximal inhibition (IC50) in assay [3] and in assay [4] (setting [5]) were 6.7 nM and 11000 nM, respectively.

For the compound `[2H]C([2H])([2H])NC(=O)c1ccc(O[C@H]2CN(C([2H])([2H])c3cnc4cc(CC)c(=O)[nH]c4c3)[C@@H]2C)cn1` [Example 45], the EC50 turned out to be 1.5 nM in assay [1] and 0.87 nM in assay [2]. For the same compound, the IC50 in assay [3] was 5 nM; in assay [4], 6900 nM.

As for `CCc1cn2nc(CN3C[C@H](Oc4ccc(C(=O)NC)nc4)[C@H]3C)cc2[nH]c1=O` [Example 46], the EC50 in assay [1] is 90 nM; in assay [2], 100 nM. Moreover, the concentration for half-maximal inhibition (IC50) is 9.9 nM in assay [3] and greater than 100000 nM in assay [4] (setting [5]).

With `Cc1cc2ncc(CN3C[C@H](Oc4ccc(C#N)cc4)[C@H]3C)cc2[nH]c1=O` [Example 47], the concentration giving a half-maximal response (EC50) in assay [1] and in assay [2] was 100 nM each time. Moreover, the 50% inhibitory concentration (IC50) in assay [3] stood at 5.8 nM; in assay [4] (setting [5]), 88000 nM.

With `CCc1cc2ncc(CN3C[C@H](Oc4ccc(C#N)cc4)[C@H]3C)cc2[nH]c1=O` [Example 48], the EC50 in assay [1] came out at 5.7 nM; in assay [2], 3.2 nM. The IC50 worked out at 6.2 nM in assay [3] and 3500 nM in assay [4] (setting [5]).

Take `CCc1cc2ncc(CN3CC[C@@H](n4ccc5nc(C(=O)NC)ccc54)C3)cc2[nH]c1=O` [Example 49]: the half-maximal effective concentration (EC50) in assay [1] came out at 9.2 nM; in assay [2], 9.5 nM. In addition, the figures for the IC50 in assay [3] and in assay [4] (setting [5]) were 6.3 nM and greater than 100000 nM, respectively.

For the compound `CNC(=O)c1ccc(O[C@H]2CN(Cc3cnc4cc(C)c(=O)[nH]c4c3)[C@@H]2C)cn1` [Example 50], the EC50 in assay [1] worked out at 5.3 nM; in assay [2] it was 8.7 nM. Besides, the IC50 in assay [3] is 11 nM; in assay [4] (setting [5]), 83000 nM.

Turning to `CCc1cc2ncc(CN3C[C@H](Oc4ccc(F)cc4)[C@H]3C)cc2[nH]c1=O` [Example 51], the concentration for a half-maximal effect (EC50) came to 4.4 nM in assay [1] and 7.9 nM in assay [2]. The IC50 is 4.1 nM in assay [3] and 4200 nM in assay [4] (setting [5]).

Take `CNC(=O)c1ncc(O[C@H]2CN(Cc3cnc4cc(C)c(=O)[nH]c4c3)[C@@H]2C)cc1F` [Example 52]: the results for the concentration for a half-maximal effect (EC50) in assay [1] and in assay [2] were 12 nM and 9.8 nM, respectively. The IC50 in assay [3] worked out at 6.3 nM; in assay [4] (setting [5]), 76000 nM.

On to `Cc1cc2ncc(CN3C[C@H](Oc4ccc(C(=O)NC5CC5)nc4)[C@H]3C)cc2[nH]c1=O` [Example 53], for which the EC50 came to 2.2 nM in assay [1] and 1.3 nM in assay [2]. In addition, the results for the IC50 in assay [3] and in assay [4] (setting [5]) were 8 nM and 61000 nM, respectively.

As for `CCNC(=O)c1ccc(OC2CN(Cc3cnc4cc(C)c(=O)[nH]c4c3)C2)cn1` [Example 56], the figures for the EC50 in assay [1] and in assay [2] were 45 nM and 12 nM, respectively. The values for the concentration for half-maximal inhibition (IC50) in assay [3] and in assay [4] (setting [5]) were 6.2 nM and 76000 nM, respectively.

`Cc1cc2ncc(CN3CC(Oc4ccc(C(=O)NC5CC5)nc4)C3)cc2[nH]c1=O` [Example 57]: the EC50 came out at 12 nM in assay [1] and 6.8 nM in assay [2]. The IC50 in assay [3] turned out to be 9.4 nM; in assay [4] (setting [5]), 47000 nM.

As for `CCNC(=O)c1ccc(OC2CN(Cc3cnc4cc(CC)c(=O)[nH]c4c3)C2)cn1` [Example 58], the half-maximal effective concentration (EC50) in assay [1] amounted to 3.3 nM; in assay [2] it was 1.7 nM. Moreover, the IC50 in assay [3] stood at 6 nM; in assay [4] (setting [5]), 8300 nM.

As for `CCc1nc2cc(F)c(CN3C[C@H](Oc4ccc(C(=O)NC)nc4)[C@H]3C)cc2[nH]c1=O` [Example 59], the half-maximal effective concentration (EC50) in assay [1] amounted to 9.8 nM; in assay [2], 4.7 nM. Also, the 50% inhibitory concentration (IC50) in assay [3] was 5.5 nM; in assay [4] (setting [5]), greater than 100000 nM.

For the compound `Cc1cc2ncc(CN3C[C@H](Oc4ccc(F)nc4)[C@H]3C)cc2[nH]c1=O` [Example 62], the EC50 in assay [1] was 86 nM; in assay [2], 140 nM. The values for the half-maximal inhibitory concentration (IC50) in assay [3] and in assay [4] (setting [5]) were 18 nM and 52000 nM, respectively.

As to `CCc1cc2ncc(CN3C[C@H](n4ccc5nc(C(=O)NC)ccc54)[C@H]3C)cc2[nH]c1=O` [Example 63, 1-[(2R,3S)-1-[(7-ethyl-6-oxo-5H-1,5-naphthyridin-3-yl)methyl]-2-methylazetidin-3-yl]-N-methylpyrrolo[3,2-b]pyridine-5-carboxamide], the half-maximal effective concentration (EC50) in assay [1] was 4.8 nM; in assay [2], 3.6 nM. In addition, the figures for the IC50 in assay [3] and in assay [4] (setting [5]) were 6.6 nM and 9600 nM, respectively.

In the case of `CCc1cc2ncc(CN3C[C@H](Oc4ccc(C(=O)NC)cc4)[C@H]3C)cc2[nH]c1=O` [Example 64], the results for the EC50 in assay [1] and in assay [2] were 96 nM and 43 nM, respectively. In addition, the IC50 in assay [3] is greater than 100 nM; in assay [4] (setting [5]) it was 2600 nM.

As for `CCc1cc2ncc(CN3C[C@H](Oc4cnc(C(=O)NC5CC5)c(F)c4)[C@H]3C)cc2[nH]c1=O` [Example 66, N-cyclopropyl-5-{[(2R,3S)-1-[(7-ethyl-6-oxo-5H-1,5-naphthyridin-3-yl)methyl]-2-methylazetidin-3-yl]oxy}-3-fluoropyridine-2-carboxamide], the 50% effective concentration (EC50) was 2.1 nM in assay [1] and 1 nM in assay [2]. In addition, the IC50 was 3.3 nM in assay [3] and 6400 nM in assay [4] (setting [5]).

`CNC(=O)c1ccc(O[C@H]2CN(Cc3cnc4cc(C(F)F)c(=O)[nH]c4c3)[C@@H]2C)cn1` [Example 70]: the EC50 is 1.3 nM in assay [1] and 1.1 nM in assay [2]. The half-inhibitory concentration (IC50) in assay [3] amounted to 4.1 nM; in assay [4] (setting [5]) it was 2400 nM.

With `O=C(NC1CC1)c1ccc(OC2CN(Cc3cnc4cc(C5CC5)c(=O)[nH]c4c3)C2)cn1` [Example 73], the half-maximal effective concentration (EC50) is 4.8 nM in assay [1] and 2.1 nM in assay [2]. The IC50 in assay [3] was 3.6 nM; in assay [4] (setting [5]) it was 1700 nM.

`Cc1cc2ncc(CN3C[C@H](Oc4ccc(C(=O)NC5(C)CC5)nc4)[C@H]3C)cc2[nH]c1=O` [Example 74]: the EC50 is 3.9 nM in assay [1] and 2.6 nM in assay [2]. Further, the IC50 in assay [3] came to 8.9 nM; in assay [4] (setting [5]), 25000 nM.

Take `C[C@@H]1[C@@H](Oc2ccc(C(=O)NC3CC3)nc2)CN1Cc1cnc2cc(C(F)F)c(=O)[nH]c2c1` [Example 75, N-cyclopropyl-5-{[(2R,3S)-1-{[7-(difluoromethyl)-6-oxo-5H-1,5-naphthyridin-3-yl]methyl}-2-methylazetidin-3-yl]oxy}pyridine-2-carboxamide]: the EC50 worked out at 1.2 nM in assay [1] and 0.72 nM in assay [2]. Further, the half-inhibitory concentration (IC50) in assay [3] turned out to be 4 nM; in assay [4] (setting [5]) it was 5200 nM.
